# Assay results published in US10940201B2, “Nucleic acid derivative having immunostimulatory activity” (Shionogi & Co., Ltd., priority 2015, dated 2021).
# Legend:
# B16F10 cells = assay: Anti-tumor effect of TRP2 peptide vaccine using an adjuvant; format: in vivo, mouse; conditions: for Tumor inhibition rate (Day 12 after transplantation) / Tumor inhibition rate (Day 14 after transplantation): compared to ODN2006 (SEQ-49)
# Experimental: After immunization by TRP2 peptide vaccine, B16F10 cells (ATTC) which is mouse melanoma expressing TRP2 protein was subcutaneously transplanted to evaluate anti-tumor effect. […] The major and minor axes of the engrafted tumor were measured every 2 to 3 days, and the tumor volume was calculated by the formula: (major axis×minor axis^2)/2 Calculation method for indicators of anti-tumor effect For the adjuvant comprising ODN1826 100·(average tumor volume of adjuvant group)/(average tumor volume of ODN1826 group) For the adjuvant comprising ODN2006 100·(average tumor volume of adjuvant group)/(average tumor volume of ODN2006 group)
# [1] = Subcutaneous irritation test in a single dose; format: in vivo, rats; conditions: for Gross: Subcutaneous: White nudules / Histopathological, Subcutaneous: Cyst-like structure accompanied with formulation of fibrous capsule / Gross: Epidermis: Crust / Histopathological, Subcutaneous: Cyst-like structure: number of the observed animals; for Histopathological, Muscle layer: Monocyte infiltration / Histopathological, Subcutaneous: Edema / Histopathological, Subcutaneous: Granulomatous infiltration / Histopathological, Subcutaneous: Neutrophilic infiltration / Histopathological, Subcutaneous: Granulomatous inflammation / Histopathological, Subcutaneous: Monocyte infiltration / Histopathological, Subcutaneous: Necrosis: total score of grades; for Administration site, Gross: Subcutaneous: Red spots, Erythema / Administration site, Gross: Subcutaneous: White accumulation / Administration site, Histopathological: Subcutaneous: Cyst-like structure: number of the observed animals (of 3); for Administration site, Gross: Subcutaneous: Red spots, Erythema / Administration site, Gross: Subcutaneous: White accumulation / Administration site, Histopathological: Subcutaneous: Cyst-like structure / Number of deaths / Number of imminent dissections / Administration site, Histopathological: Muscle layer: Edema / Administration site, Histopathological: Muscle layer: Neutrophilic infiltration / Administration site, Histopathological: Subcutaneous: Bleeding / Administration site, Histopathological: Subcutaneous: Edema / Administration site, Histopathological: Subcutaneous: Neutrophilic infiltration: one day after administration; for Number of deaths / Number of imminent dissections / Administration site, Histopathological: Muscle layer: Edema / Administration site, Histopathological: Muscle layer: Neutrophilic infiltration / Administration site, Histopathological: Subcutaneous: Bleeding / Administration site, Histopathological: Subcutaneous: Edema / Administration site, Histopathological: Subcutaneous: Neutrophilic infiltration: 3 animals; for Administration site, Histopathological: Muscle layer: Edema / Administration site, Histopathological: Muscle layer: Neutrophilic infiltration / Administration site, Histopathological: Subcutaneous: Bleeding / Administration site, Histopathological: Subcutaneous: Edema / Administration site, Histopathological: Subcutaneous: Neutrophilic infiltration: total score (Minimal 1, Mild 2, Moderate 3)
# Experimental: Subcutaneous irritation of a compound of the present invention was evaluated by gross examination and histopathological examination about the skin at necropsy one day, one and four week(s) after subcutaneous administration in a single dose.
# The compound of the present invention was subcutaneously administered to the center of back between the shoulder blades of rats. At necropsy one day, one or four week(s) after administration (isoflurane anesthesia, euthanasia by bleeding), skin at the administration site was collected, grossly observed and fixed in 10% neutral buffered formalin solution. The fixed skin was cut out, embedded and put in a thin slice by the usual methods, and Hematoxylin-eosin (HE) stained sections were made. The pathological observers were observed the HE stained sections by an optical microscope, and recorded the histopathological findings. The changes in pathological findings were evaluated in four grades of Minimal; ±, Mild; +, Moderate; 2+ and Marked; 3+. When any grade was not appropriate for the finding, it was recorded as Positive.
# SEQ-2, SEQ-49 or an adjuvant of the present invention was dissolved in phosphate buffered saline and administered at 4.71, 15.7 or 47.1 nmol/1 mL/site, respectively.
# [2] = four weeks after administration, 4.71 nmol/site
# [3] = four weeks after administration, 15.7 nmol/site
# [4] = four weeks after administration, 47.1 nmol/site
# [5] = one week after administration, 4.71 nmol/site
# [6] = one week after administration, 15.7 nmol/site
# [7] = one week after administration, 47.1 nmol/site
substance,measurement,setting,value
ODN2006 [SEQ-49],effect of inhibition on tumor progression of B16F10 cells (in words),B16F10 cells,little effect of inhibition on tumor progression of B16F10 cells
same,Tumor inhibition rate (Day 12 after transplantation),"B16F10 cells; Table 41, 4.71 nmol",0.00%
same,Tumor inhibition rate (Day 12 after transplantation),"B16F10 cells; Table 42, 4.71 nmol",0.00%
same,Tumor inhibition rate (Day 14 after transplantation),"B16F10 cells; Table 43, 4.71 nmol",0.00%
same,Tumor inhibition rate (Day 14 after transplantation),"B16F10 cells; Table 45, 4.71 nmol",0.00%
same,Tumor inhibition rate (Day 14 after transplantation),"B16F10 cells; Table 46, 4.71 nmol",0.00%
same,Tumor inhibition rate (Day 14 after transplantation),"B16F10 cells; Table 48, 4.71 nmol",0.00%
same,Number of deaths/imminent dissections,[1]; [2],0/0
same,Gross: Subcutaneous: White nudules,[1]; [2],0
same,"Histopathological, Subcutaneous: Cyst-like structure accompanied with formulation of fibrous capsule",[1]; [2],0
same,"Histopathological, Muscle layer: Monocyte infiltration",[1]; [2],0
same,"Histopathological, Subcutaneous: Edema",[1]; [2],0
same,"Histopathological, Subcutaneous: Granulomatous infiltration",[1]; [2],0
same,"Histopathological, Subcutaneous: Neutrophilic infiltration",[1]; [2],0
same,Number of deaths/imminent dissections,[1]; [3],0/0
same,Gross: Subcutaneous: White nudules,[1]; [3],0
same,"Histopathological, Subcutaneous: Cyst-like structure accompanied with formulation of fibrous capsule",[1]; [3],0
same,"Histopathological, Muscle layer: Monocyte infiltration",[1]; [3],0
same,"Histopathological, Subcutaneous: Edema",[1]; [3],0
same,"Histopathological, Subcutaneous: Granulomatous infiltration",[1]; [3],0
same,"Histopathological, Subcutaneous: Neutrophilic infiltration",[1]; [3],0
same,Number of deaths/imminent dissections,[1]; [4],0/0
same,Gross: Subcutaneous: White nudules,[1]; [4],0
same,"Histopathological, Subcutaneous: Cyst-like structure accompanied with formulation of fibrous capsule",[1]; [4],0
same,"Histopathological, Muscle layer: Monocyte infiltration",[1]; [4],0
same,"Histopathological, Subcutaneous: Edema",[1]; [4],0
same,"Histopathological, Subcutaneous: Granulomatous infiltration",[1]; [4],0
same,"Histopathological, Subcutaneous: Neutrophilic infiltration",[1]; [4],0
same,"Administration site, Gross: Subcutaneous: Red spots, Erythema",[1]; 4.71 nmol/site,0
same,"Administration site, Gross: Subcutaneous: White accumulation",[1]; 4.71 nmol/site,0
same,"Administration site, Histopathological: Subcutaneous: Cyst-like structure",[1]; 4.71 nmol/site,0
same,"Administration site, Gross: Subcutaneous: Red spots, Erythema",[1]; 15.7 nmol/site,0
same,"Administration site, Gross: Subcutaneous: White accumulation",[1]; 15.7 nmol/site,0
same,"Administration site, Histopathological: Subcutaneous: Cyst-like structure",[1]; 15.7 nmol/site,0
same,"Administration site, Gross: Subcutaneous: Red spots, Erythema",[1]; 47.1 nmol/site,1
same,"Administration site, Gross: Subcutaneous: White accumulation",[1]; 47.1 nmol/site,0
same,"Administration site, Histopathological: Subcutaneous: Cyst-like structure",[1]; 47.1 nmol/site,0
same,Number of deaths,[1]; 4.71 nmol/site,0/0
same,Number of imminent dissections,[1]; 4.71 nmol/site,0/0
same,Number of deaths,[1]; 15.7 nmol/site,0/0
same,Number of imminent dissections,[1]; 15.7 nmol/site,0/0
same,Number of deaths,[1]; 47.1 nmol/site,0/0
same,Number of imminent dissections,[1]; 47.1 nmol/site,0/0
same,Number of deaths/imminent dissections,[1]; [5],0/0
same,Gross: Epidermis: Crust,[1]; [5],1
same,Gross: Subcutaneous: White nudules,[1]; [5],0
same,"Histopathological, Subcutaneous: Cyst-like structure",[1]; [5],0
same,"Histopathological, Subcutaneous: Edema",[1]; [5],4
same,"Histopathological, Subcutaneous: Granulomatous inflammation",[1]; [5],0
same,"Histopathological, Subcutaneous: Monocyte infiltration",[1]; [5],3
same,"Histopathological, Subcutaneous: Necrosis",[1]; [5],0
same,"Histopathological, Subcutaneous: Neutrophilic infiltration",[1]; [5],0
same,Number of deaths/imminent dissections,[1]; [6],0/0
same,Gross: Epidermis: Crust,[1]; [6],1
same,Gross: Subcutaneous: White nudules,[1]; [6],0
same,"Histopathological, Subcutaneous: Cyst-like structure",[1]; [6],0
same,"Histopathological, Subcutaneous: Edema",[1]; [6],6
same,"Histopathological, Subcutaneous: Granulomatous inflammation",[1]; [6],0
same,"Histopathological, Subcutaneous: Monocyte infiltration",[1]; [6],6
same,"Histopathological, Subcutaneous: Necrosis",[1]; [6],0
same,"Histopathological, Subcutaneous: Neutrophilic infiltration",[1]; [6],0
same,Number of deaths/imminent dissections,[1]; [7],0/0
same,Gross: Epidermis: Crust,[1]; [7],0
same,Gross: Subcutaneous: White nudules,[1]; [7],0
same,"Histopathological, Subcutaneous: Cyst-like structure",[1]; [7],0
same,"Histopathological, Subcutaneous: Edema",[1]; [7],5
same,"Histopathological, Subcutaneous: Granulomatous inflammation",[1]; [7],0
same,"Histopathological, Subcutaneous: Monocyte infiltration",[1]; [7],8
same,"Histopathological, Subcutaneous: Necrosis",[1]; [7],0
same,"Histopathological, Subcutaneous: Neutrophilic infiltration",[1]; [7],0
same,subcutaneous irritation findings four weeks after administration,"[1]; rats, single subcutaneous dose, four weeks",inflammation was almost recovered
same,subcutaneous irritation findings one day after administration,"[1]; rats, single subcutaneous dose, one day","acute inflammation, mainly neutrophil infiltration, was observed under the skin"
same,subcutaneous irritation findings one week after administration,"[1]; rats, single subcutaneous dose, one week","inflammation, mainly lymphocyte and macrophage, was observed from subcutaneous to dermis tissue"
same,"Administration site, Histopathological: Muscle layer: Edema",[1]; 4.71 nmol/site,2
same,"Administration site, Histopathological: Muscle layer: Neutrophilic infiltration",[1]; 4.71 nmol/site,4
same,"Administration site, Histopathological: Subcutaneous: Bleeding",[1]; 4.71 nmol/site,2
same,"Administration site, Histopathological: Subcutaneous: Edema",[1]; 4.71 nmol/site,4
same,"Administration site, Histopathological: Subcutaneous: Neutrophilic infiltration",[1]; 4.71 nmol/site,6
same,"Administration site, Histopathological: Muscle layer: Edema",[1]; 15.7 nmol/site,1
same,"Administration site, Histopathological: Muscle layer: Neutrophilic infiltration",[1]; 15.7 nmol/site,6
same,"Administration site, Histopathological: Subcutaneous: Bleeding",[1]; 15.7 nmol/site,1
same,"Administration site, Histopathological: Subcutaneous: Edema",[1]; 15.7 nmol/site,5
same,"Administration site, Histopathological: Subcutaneous: Neutrophilic infiltration",[1]; 15.7 nmol/site,6
same,"Administration site, Histopathological: Muscle layer: Edema",[1]; 47.1 nmol/site,0
same,"Administration site, Histopathological: Muscle layer: Neutrophilic infiltration",[1]; 47.1 nmol/site,5
same,"Administration site, Histopathological: Subcutaneous: Bleeding",[1]; 47.1 nmol/site,2
same,"Administration site, Histopathological: Subcutaneous: Edema",[1]; 47.1 nmol/site,5
same,"Administration site, Histopathological: Subcutaneous: Neutrophilic infiltration",[1]; 47.1 nmol/site,6
